≈ marks a conversion by molar mass, not a printed value.
Key:
[1] = Cmax in male Sprague-Dawley rat at 0.1 mg/kg, po measured upto 8 hrs by LC-MS/MS analysis; details: in vivo
[2] = Solubility of compound at pH 1.2 incubated for 4 hrs by HPLC or LC-MS/MS analysis; type: physicochemical; details: buffer, pH 1.2, 4 h
[3] = AUC (0 to 8 hrs) in male Sprague-Dawley rat at 0.1 mg/kg, po measured upto 8 hrs by LC-MS/MS analysis; type: ADME, organism-based; details: in vivo
[4] = Solubility of compound at pH 6.8 incubated for 4 hrs by HPLC or LC-MS/MS analysis; type: physicochemical; details: buffer, pH 6.8, 4 h
[5] = Plasma protein binding in rat assessed as unbound fraction at 1 uM incubated for 6 hrs by LC/MS/MS based equilibrium dialysis method; type: ADME, cell-free
[6] = AUC (0 to 8 hrs) in male Sprague-Dawley rat at 0.1 mg/kg, iv measured upto 8 hrs by LC-MS/MS analysis; type: ADME, organism-based; details: in vivo
[7] = Tmax in male Sprague-Dawley rat at 0.1 mg/kg, po measured […] by LC-MS/MS analysis; type: ADME, organism-based; details: in vivo
[8] = C0 in male Sprague-Dawley rat at 0.1 mg/kg, iv measured upto 8 hrs by LC-MS/MS analysis; details: in vivo
[9] = Total clearance in male Sprague-Dawley rat at 0.1 mg/kg, iv measured upto 8 hrs by LC-MS/MS analysis; type: ADME, organism-based; details: in vivo
[10] = Volume of distribution at steady state in male Sprague-Dawley rat at 0.1 mg/kg, iv measured upto 8 hrs by LC-MS/MS analysis; type: ADME, organism-based; details: in vivo
Albumin = Albumin (Homo sapiens, UniProt P02768); assay: Binding affinity to serum albumin in human plasma; type: ADME, cell-free
Transthyretin [11] = biological target: Transthyretin (Homo sapiens, UniProt P02766); assay: Binding affinity to TTR in human plasma assessed as target occupancy incubated for 6 hrs in presence of E)-S-phenyl 3-(4-hydroxy-3,5-dimethyistyryl)benzothioate by fluorescence based competitive binding assay; type: cell-free
Transthyretin [12] = biological target: Transthyretin (Homo sapiens, UniProt P02766, V50M); assay: Binding affinity to TTR V30M mutant (unknown origin) assessed as dissociation constant by ITC analysis
[13] = pampa, 4 h, 500 µM
[14] = Oral bioavailability in male Sprague-Dawley rat at 0.1 mg/kg measured upto 8 hrs by LC-MS/MS analysis; type: ADME, organism-based; details: in vivo

Sequence of Albumin (P02768 whole entry): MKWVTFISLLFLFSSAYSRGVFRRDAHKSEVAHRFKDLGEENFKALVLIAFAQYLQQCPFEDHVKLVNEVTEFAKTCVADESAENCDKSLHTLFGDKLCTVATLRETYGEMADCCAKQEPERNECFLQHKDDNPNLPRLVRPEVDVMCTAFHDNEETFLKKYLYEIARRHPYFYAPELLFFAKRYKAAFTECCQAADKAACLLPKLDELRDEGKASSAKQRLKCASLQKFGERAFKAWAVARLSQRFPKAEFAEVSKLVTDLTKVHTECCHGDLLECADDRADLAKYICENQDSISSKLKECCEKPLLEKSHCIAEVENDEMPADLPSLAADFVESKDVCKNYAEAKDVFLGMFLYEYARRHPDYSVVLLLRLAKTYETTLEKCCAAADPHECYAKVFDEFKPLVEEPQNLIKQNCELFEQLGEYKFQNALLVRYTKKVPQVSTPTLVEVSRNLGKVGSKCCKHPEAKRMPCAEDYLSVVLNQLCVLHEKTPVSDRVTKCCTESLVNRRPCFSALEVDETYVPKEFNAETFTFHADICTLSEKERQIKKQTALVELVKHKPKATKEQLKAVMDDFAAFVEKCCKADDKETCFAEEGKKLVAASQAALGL

CCc1oc2c(Cl)ccc(Cl)c2c1C(=O)c1cc(I)c(O)c(I)c1
Cmax [1]: 77 ng/mL | solubility [2]: < 0.02 µM | AUC [3]: 350 ng·h/mL | solubility [4]: 89.5 µM (≈ 52.5 µg/mL) | Fu [5]: < 0.01% | AUC [6]: 1746 ng·h/mL | Tmax [7]: 4 h | C0 at 8 h [8]: 1340 ng/mL | CL [9]: 0.662 mL/min/kg | Vdss [10]: 0.269 L/kg

CCc1oc2cccc(I)c2c1C(=O)c1cc(I)c(O)c(I)c1
Cmax [1]: 240 ng/mL | solubility [2]: < 0.02 µM | AUC [3]: 1489 ng·h/mL | solubility [4]: > 100 µM | Activity (Albumin): Active | Fu [5]: < 0.01% | AUC [6]: 2961 ng·h/mL | Tmax [7]: 4 h | C0 at 8 h [8]: 1540 ng/mL | CL [9]: 0.405 mL/min/kg | Vdss [10]: 0.153 L/kg

CCc1oc2cccc(Br)c2c1C(=O)c1cc(I)c(O)c(I)c1
Cmax [1]: 390 ng/mL | solubility [2]: 0.054 µM (≈ 0.0322 µg/mL) | AUC [3]: 2476 ng·h/mL | solubility [4]: > 100 µM | Fu [5]: < 0.01% | AUC [6]: 3708 ng·h/mL | Tmax [7]: 4 h | C0 at 8 h [8]: 1740 ng/mL | CL [9]: 0.343 mL/min/kg | Vdss [10]: 0.113 L/kg

CCc1oc2cccc(Cl)c2c1C(=O)c1cc(I)c(O)c(I)c1
Cmax [1]: 395 ng/mL | solubility [2]: < 0.01 µM | AUC [3]: 2524 ng·h/mL | solubility [4]: > 100 µM | Fu [5]: < 0.01% | AUC [6]: 3726 ng·h/mL | Tmax [7]: 4 h | C0 at 8 h [8]: 1720 ng/mL | CL [9]: 0.343 mL/min/kg | Vdss [10]: 0.112 L/kg

CCc1oc2ccccc2c1C(=O)c1cc(I)c(O)c(I)c1 [BENZIODARONE]
EC50 (Transthyretin [11]): 8.9 µM | Activity (Albumin): Active | Kd (Transthyretin [12]): 0.078 µM

COCCc1ccc(OCC(O)CNC(C)C)cc1 (stereo not given) [METOPROLOL]
permeability [13]: 1.8 10^-6 cm/s

O=C(O)c1ccc2nc(-c3cc(Cl)cc(Cl)c3)oc2c1
Cmax [1]: 235 ng/mL | AUC [3]: 1500 ng·h/mL | Activity (Albumin): Active | AUC [6]: 2363 ng·h/mL | Tmax [7]: 4 h | bioavailability [14]: 63.5% | C0 at 8 h [8]: 519 ng/mL | CL [9]: 0.0993 mL/min/kg | Vdss [10]: 0.311 L/kg

CCc1oc2cccc(C)c2c1C(=O)c1cc(I)c(O)c(I)c1
Cmax [1]: 303 ng/mL | solubility [2]: < 0.01 µM | AUC [3]: 1918 ng·h/mL | solubility [4]: > 100 µM | Fu [5]: < 0.01% | AUC [6]: 3102 ng·h/mL | Tmax [7]: 4 h | C0 at 8 h [8]: 1640 ng/mL | CL [9]: 0.44 mL/min/kg | Vdss [10]: 0.123 L/kg

O=C(O)c1cc(/N=N/c2ccc(S(=O)(=O)Nc3ccccn3)cc2)ccc1O [SULFASALAZINE]
permeability [13]: 0.038 10^-6 cm/s

Source: ChEMBL document CHEMBL5543166, “Development of Benziodarone Analogues with Enhanced Potency for Selective Binding to Transthyretin in Human Plasma” (J Med Chem, 2024)
